Earlier results on one compound are cited in patent US20140194400A1, “Nasal Pharmaceutical Formulation” (Meda Pharma GmbH & Co., Kg, priority 2011, published 2014).

Take `C[C@@H]1C[C@H]2[C@@H]3C[C@H](F)C4=CC(=O)C=C[C@]4(C)[C@@]3(F)[C@@H](O)C[C@]2(C)[C@@]1(O)C(=O)SCF` [fluticasone]: the oral absorption result is “about 1%”.
